# Results from US10548911B2, “Small molecule anti-scarring agents” (UNIVERSITY OF ROCHESTER, priority 2014, dated 2020).
# “Also recorded” adds a separate entry of the source.
# Legend:
# phospho-p38 = experiment: Western blot of phospho-p38 in TGFβ-treated human orbital fibroblasts; type: cell-based; details: for reduction of phospho-p38 levels: 250 nM
# Procedure: Therefore, activity of another signaling molecule that is involved in myofibroblast formation, namely the mitogen-activated protein kinase (MAPK), p38, was measured to assess its potential role in the observed results. P38 MAPKs are a class of protein kinases that respond to TGFβ, ultraviolet radiation and other stimuli. Phosphorylation and activation of p38 can lead to numerous downstream signaling pathways, including phosphorylation of Smad proteins.
# To further test if salinomycin targets the p38 pathway to block myofibroblast formation, a plasmid encoding a mutant MKK6 (pcDNA3-flag MKK6(glu)) protein was used. MKK6 phosphorylates and thus activates p38 in response to extracellular signals such as TGFβ or other environmental stresses. The MKK6(glu) protein, which harbors glutamate mutations at amino acid residues serine 207 and threonine 211, is constitutively active and thus phosphorylates p38 irrespective of signal (Raingeaud et al., “MKK3- and MKK6-regulated gene expression is mediated by the p38 mitogen-activated protein kinase signal transduction pathway,” Mol. Cell. Biol. 16:1247-1255 (1996), which is hereby incorporated by reference in its entirety). Thus, if salinomycin is blocking the p38 signaling pathway, MKK6(glu) should overcome the effect of salinomycin. MKK6(glu) was first tested using the SBE4-TK-luc reporter plasmid. The luciferase reporter plasmid was introduced into human fibroblasts along with the MKK6(glu) plasmid or a control plasmid (pcDNA3-GFP). Cells were then treated with vehicle, TGFβ or TGFβ plus 250 nM salinomycin. After 24 hours, luciferase activity was measured (FIG. 6A). […] MKK6(glu) was further tested to assess whether it could attenuate the ability of salinomycin to inhibit p38 phosphorylation. Control or MKK6(glu) plasmids were introduced into human fibroblasts by electroporation and then cells were treated with TGFβ for 24 hours. Following treatment, cells were analyzed for flag-MKK6(glu) expression and phospho-p38 by Western blot (FIG. 6B). […] However, MKK6(glu) expression leads to a large induction of phospho-p38, regardless of salinomycin treatment. As a third test, control or MKK6(glu) plasmids were introduced into human fibroblasts by electroporation. After electroporation, cells were induced to form myofibroblasts by TGFβ treatment for 72 hours. Samples were analyzed for expression of flag-MKK6(glu), αSMA, calponin and β-tubulin by Western blot (FIG. 6C).
# [1] = system: TGFβ-induced SBE-luciferase activity; experiment: Secondary dual luciferase screen (SBE-luciferase normalized to constitutive Renilla luciferase); type: cell-based, human; details: for inhibition of luciferase expression, dose responsiveness: secondary dual luciferase screen, several doses (low micromolar)
# Procedure: FIG. 1A is a diagram of Smad-dependent reporter construct. Four tandem Smad binding elements (SBE) were inserted upstream of the minimal Thymidine Kinase (TK) promoter. Downstream of the promoter is a destabilized version of the firefly luciferase gene (luc2P) present in the pLuc2P-Hygro plasmid which also harbors the hygromycin resistance gene. The plasmid was introduced into HEK293FT cell line and individual colonies were selected with hygromycin (200 ug/ml) to develop a Smad/TGFβ dependent-luciferase reporter cell line. FIG. 1B is a graph illustrating the response of the reporter cell line to 1 ng/ml treatment of TGFβ for 20 hours, which results in an approximately 20-fold increase of luciferase activity.
# They are: Benzbromarone (“BZB”), Bithionate sodium (“BTS”), Piplartine (piperlongumine) (“PPT”), Amsacrine (“ASC”), and Alexidine (“AXD”). A secondary luciferase screening assay was performed to determine specificity and dose responsiveness of these compounds in comparison to salinomycin (“SNC”). The secondary screen utilizes dual luciferase technology that includes the above mentioned SBE-luciferase in addition to a Renilla luciferase that is under control of the constitutive SV40 promoter. Therefore the SBE-luciferase activity can be normalized to the Renilla luciferase activity to control for toxicity and non-specific effects. The secondary screen can thus be used to remove small molecules that display overt toxicity and/or non-specific effects on the primary assay.
# [2] = system: TGFβ induced Smad-luc activity; experiment: Smad-luc reporter in human orbital fibroblasts electroporated with control or MKK6(glu) plasmid; type: cell-based; details: 250 nM, 24 hours
# Procedure: Plasmid DNA was introduced into human fibroblasts by electroporation. Plasmids were electroporated with an Amaxa nucleofector (program U-025) into 1×10^6 cells. The pcDNA3-flag MKK6(glu) plasmid was obtained from Addgene (plasmid 13518, from Roger Davis' lab). After transfection cells were cultured for 12-24 hours and culture medium was subsequently changed to treatment conditions.
# To further test if salinomycin targets the p38 pathway to block myofibroblast formation, a plasmid encoding a mutant MKK6 (pcDNA3-flag MKK6(glu)) protein was used. MKK6 phosphorylates and thus activates p38 in response to extracellular signals such as TGFβ or other environmental stresses. The MKK6(glu) protein, which harbors glutamate mutations at amino acid residues serine 207 and threonine 211, is constitutively active and thus phosphorylates p38 irrespective of signal (Raingeaud et al., “MKK3- and MKK6-regulated gene expression is mediated by the p38 mitogen-activated protein kinase signal transduction pathway,” Mol. Cell. Biol. 16:1247-1255 (1996), which is hereby incorporated by reference in its entirety). Thus, if salinomycin is blocking the p38 signaling pathway, MKK6(glu) should overcome the effect of salinomycin. MKK6(glu) was first tested using the SBE4-TK-luc reporter plasmid. The luciferase reporter plasmid was introduced into human fibroblasts along with the MKK6(glu) plasmid or a control plasmid (pcDNA3-GFP). Cells were then treated with vehicle, TGFβ or TGFβ plus 250 nM salinomycin. After 24 hours, luciferase activity was measured (FIG. 6A). […] MKK6(glu) was further tested to assess whether it could attenuate the ability of salinomycin to inhibit p38 phosphorylation. Control or MKK6(glu) plasmids were introduced into human fibroblasts by electroporation and then cells were treated with TGFβ for 24 hours. Following treatment, cells were analyzed for flag-MKK6(glu) expression and phospho-p38 by Western blot (FIG. 6B). […] Samples were analyzed for expression of flag-MKK6(glu), αSMA, calponin and β-tubulin by Western blot (FIG. 6C).
smiles,measurement,setting,value
CC[C@@H](C(=O)[C@@H](C)[C@@H](O)[C@H](C)[C@@H]1O[C@@H]([C@@H](CC)C(=O)O)CC[C@@H]1C)[C@H]1O[C@]2(C=C[C@@H](O)[C@]3(CC[C@@](C)([C@H]4CC[C@](O)(CC)[C@H](C)O4)O3)O2)[C@H](C)C[C@@H]1C [salinomycin],reduction of phospho-p38 levels,phospho-p38; 5 hours,more than 2 fold
same,reduction of phospho-p38 levels,phospho-p38; 24 hours,10 fold
same,phospho-p38 levels,phospho-p38; 5 hours TGFβ treatment,completely blocked
same,inhibition of phospho-p38,phospho-p38; 24 hours TGFβ treatment,80%
same,phosphorylation of p38,"phospho-p38; control plasmid, TGFβ 24 hours",blocks phosphorylation of p38
same,TGFβ-induced SBE-luciferase activity level,[1]; 1 uM,below baseline levels
same,"inhibition of luciferase expression, dose responsiveness",[1],dose dependent decrease; also recorded: dose responsive decrease
same,"inhibition of luciferase expression, dose responsiveness",[1]; listed as SNC,substantially inhibited luciferase expression
same,TGFβ-induced Smad-luc (luciferase) activity,[2]; constitutively active MKK6(glu) plasmid,attenuated the effect of salinomycin; also recorded: unable to block TGFβ-induced luciferase activity
same,TGFβ-induced Smad-luc (luciferase) activity,[2]; control (GFP) plasmid,completely blocked TGFβ-induced luciferase activity
same,TGFβ-induced Smad-luc (luciferase) activity,"[2]; control (GFP) plasmid, listed as Salinomycin",blocked TGFβ induced Smad-luc activity
